The subject of experiment [1] is RBL-2H3 cells. Kind of experiment: antigen (DNP-BSA)-induced degranulation β-hexosaminidase release assay. Particulars: Rattus norvegicus. Type of experiment: cell-based. As for the experimental part: (§1) Cell culture: The mucosal mast cell-derived rat basophilic leukemia (RBL-2H3) cell line was purchased from the Bioresource Collection and Research Center (Hsin-Chu, Taiwan). Cells were grown in DMEM medium supplemented with 10% FBS and 100 U/mL penicillin plus 100 μg/mL streptomycin. Cells were cultured in 10 cm cell culture dishes at 37° C. in a humidified chamber with 5% CO2 in air.
(§2) Degranulation β-hexosaminidase assay induced by A23187 or antigen: The degree of A23187- and antigen-induced degranulation in RBL-2H3 cells was determined by a β-hexosaminidase release assay as described previously (Chen et al., J. Nat. Prod., 72, 950-953, 2009; Matsuda et al., Bioorg. Med. Chem., 12, 5891-5898, 2004) with following modifications. RBL-2H3 cells were seeded in a 96-well plate (2×10^4 cells/well) for A23187-induced and in 48-well plate (3×10^4 cells/well) for antigen-induced experiment. Cells were treated with various concentrations of the samples for 20 h. Dexamethasone (10 nM) was used as a positive control. The cells for the antigen-induced experiment were first sensitized with anti-DNP IgE (5 μg/mL) for at least 2 h. […] Absorbance was measured at 405 nm on a microplate reader (Multiskan Ascent, Thermo Scientific). The inhibition percentage of β-hexosaminidase release was calculated as the percentage of control value (untreated stimulated cells). […]

The test system of experiment [2] is RBL-2H3 cells. Nature of the experiment: A23187-induced degranulation β-hexosaminidase release assay. The format is cell-based. Particulars: Rattus norvegicus, A23187 1 μM. How it is done:
as §1, §2

pIC50: −log10 of the molar value.

In general, pIC50 refers to the negative decadic logarithm of the IC50, by convention in mol/L.

As for `CCCCCCC/C=C/C=C/C=C\C(=O)O[C@@H]1[C@@H](C)[C@@]2(O)[C@@H](C=C(CO)C[C@]3(O)C(=O)C(C)=C[C@@H]23)[C@@H]2C(C)(C)[C@]12OC(C)=O` [phorbol ester I, 12-O-(2Z,4E,6E)-tetradeca-2,4,6-trienoylphorbol-13-acetate], the negative logarithm of the IC50 (pIC50) is 7.96 in experiment [1] and 8.77 in experiment [2].

These data come from US10335445B2, “Compositions and methods of antiallergic phorbol ester and phorbol derivatives as the main active ingredients from the seeds of aquilaria malaccensis” (WE-WIN APPLIED BIO-TECH CO., LTD., priority 2016, dated 2019).
